The text below walks through data of patent US4285941A, “Cephalosporin compounds and antibacterial drugs containing the same” (Eisai Co., Ltd., priority 1979, dated 1981).

Structures can show the parent of a compound that is named as a salt.

Holding throughout (experiment): Minimal inhibitory concentration (MIC), standard agar dilution method
What all share (type): cell-based
Background: In agar dilution the substance is mixed into plates at graded concentrations.

One assay concerns Escherichia coli NIHJ. As to conditions: Mueller Hinton agar, 37° C., 18 hours, Examples 1, 2, 4, 5, 6, 8 and 22 as sodium salts, others as free carboxylic acids. How it is done:
(§1) The compounds obtained in these examples were tested for their antibacterial activities in vitro. Minimal inhibitory concentration (MIC) was determined by the standard agar dilution method of the Japan Society of Chemotherapy. Compounds were dissolved in appropriate solvents (sterilized water for sodium salts and acetone-water [1:1] for free acids) and serial two-fold dilutions were made. Sodium salt of Cefazolin was chosen as the control compound. One-ml aliquots of each dilution were mixed with 9 ml of Mueller Hinton agar in petri-dishes to make agar plates containing the compound at serially diluted concentrations. After agar hardened, plates were put in an incubator at 37° C. for 1.5-2 hours with the lids slightly open to evaporate acetone off the plates. Test organisms were grown for 18 hours at 37° C. in Trypticase Soy broth and diluted in saline to approximately 10^6 colony forming units per ml. A loopful of each cell suspension was applied on the agar plate mentioned above and the plates were incubated for 18 hours at 37° C. before MIC was determined. MIC values of the compounds of Examples 1, 2, 4, 5, 6, 8 and 22 were determined as their sodium salts and those of other compounds as free carboxylic acids.

The test system of assay [1] is Klebsiella pneumoniae EK-6. As to conditions: EK6, Mueller Hinton agar, 37° C., 18 hours, Examples 1, 2, 4, 5, 6, 8 and 22 as sodium salts, others as free carboxylic acids. How it is done: as §1
Another assay deals with Proteus morganii EP-14. The conditions noted are these: Morganella morganii, EP14; Mueller Hinton agar, 37° C., 18 hours; Examples 1, 2, 4, 5, 6, 8 and 22 as sodium salts, others as free carboxylic acids. How it is done:
as §1

The test system of assay [2] is Pseudomonas aeruginosa EP-172. As to conditions: EP172, Mueller Hinton agar, 37° C., 18 hours, Examples 1, 2, 4, 5, 6, 8 and 22 as sodium salts, others as free carboxylic acids. The procedure:
as §1

In assay [3] the test system is Serratia marcescens ES-75. The conditions noted are these: ES75, Mueller Hinton agar, 37° C., 18 hours, Examples 1, 2, 4, 5, 6, 8 and 22 as sodium salts, others as free carboxylic acids. The procedure: as §1
Assay [4] deals with Staphylococcus aureus 209-P. As to conditions: Mueller Hinton agar, 37° C., 18 hours, Examples 1, 2, 4, 5, 6, 8 and 22 as sodium salts, others as free carboxylic acids. How it is done: as §1

One may read the MIC as the lowest concentration that inhibits growth of the organism. On to `Cn1nnnc1SCC1=C(C(=O)O)N2C(=O)[C@@H](NC(=O)[C@H](NC(=O)c3coc4c(O)c(O)c(O)cc4c3=O)c3ccc(O)cc3)[C@H]2SC1` [Example 28, 7β-[D-2-(6,7,8-Trihydroxychromone-3-carboxamido)-2-(4-hydroxyphenyl)acetamido]-3-[(1-methyltetrazol-5-yl)thiomethyl]-3-cephem-4-carboxylic acid], for which the minimum inhibitory concentration (MIC) in the assay on Escherichia coli NIHJ was 3.13 µg/mL; in assay [1], at most 0.1 µg/mL; with Proteus morganii EP-14 it was 50 µg/mL; in assay [2], 0.4 µg/mL; in assay [3], 0.8 µg/mL; in assay [4], 3.13 µg/mL.
`CCn1nnnc1SCC1=C(C(=O)O)N2C(=O)[C@@H](NC(=O)[C@H](NC(=O)c3coc4cc(O)c(O)cc4c3=O)c3ccc(O)cc3)[C@H]2SC1` [Example 20, 7β-[D-2-(6,7-Dihydroxychromone-3-carboxamido)-2-(4-hydroxyphenyl)acetamido]-3-[(1-ethyltetrazol-5-yl)thiomethyl]-3-cephem-4-carboxylic acid]: the minimal inhibitory concentration (MIC) with Escherichia coli NIHJ was 0.2 µg/mL; in assay [1] it was at most 0.1 µg/mL; with Proteus morganii EP-14, 3.13 µg/mL; in assay [2] it was 0.2 µg/mL; in assay [3], at most 0.1 µg/mL; in assay [4], 0.8 µg/mL.
Regarding `O=C(O)C1=C(CSc2ccccn2)CS[C@@H]2[C@H](NC(=O)[C@H](NC(=O)c3coc4cc(O)c(O)cc4c3=O)c3ccc(O)cc3)C(=O)N12` [Example 24, 7β-[D-2-(6,7-Dihydroxychromone-3-carboxamido)-2-(4-hydroxyphenyl)acetamido]-3-(2-pyridylthiomethyl)-3-cephem-4-carboxylic acid], the MIC was 0.4 µg/mL with Escherichia coli NIHJ; at most 0.1 µg/mL in assay [1]; 25 µg/mL in the assay with Proteus morganii EP-14; 0.8 µg/mL in assay [2]; at most 0.1 µg/mL in assay [3]; 0.8 µg/mL in assay [4].
On to `O=C(O)Cn1nnnc1SCC1=C(C(=O)O)N2C(=O)[C@@H](NC(=O)[C@H](NC(=O)c3coc4c(O)c(O)c(O)cc4c3=O)c3ccc(O)cc3)[C@H]2SC1` [Example 30, 7β-[D-2-(6,7,8-Trihydroxychromone-3-carboxamido)-2-(4-hydroxyphenyl)acetamido]-3-[(1-carboxymethyltetrazol-5-yl)thiomethyl]-3-cephem-4-carboxylic acid], for which the MIC in the assay on Escherichia coli NIHJ was 0.8 µg/mL; in assay [1], at most 0.1 µg/mL; with Proteus morganii EP-14 it was 50 µg/mL; in assay [2], 0.8 µg/mL; in assay [3] it was 0.8 µg/mL; in assay [4], 12.5 µg/mL.
`Cn1nnnc1SCC1=C(C(=O)O)N2C(=O)[C@@H](NC(=O)[C@H](NC(=O)c3coc4cc(O)c(O)cc4c3=O)c3ccc(O)cc3)[C@H]2SC1` [Example 3, 7β-[D-2-(6,7-Dihydroxychromone-3-carboxamido)-2-(4-hydroxyphenyl)acetamido]-3-[(1-methyltetrazol-5-yl)thiomethyl]-3-cephem-4-carboxylic acid]: the MIC in the assay on Escherichia coli NIHJ is 0.2 µg/mL; in assay [1], at most 0.1 µg/mL; in the assay on Proteus morganii EP-14, 0.4 µg/mL; in assay [2], 0.4 µg/mL; in assay [3], at most 0.1 µg/mL; in assay [4], 0.8 µg/mL.
Regarding `CC(=O)Oc1cc2occ(C(=O)N[C@@H](C(=O)N[C@@H]3C(=O)N4C(C(=O)O)=C(CSc5nnc(C)s5)CS[C@H]34)c3ccc(O)cc3)c(=O)c2cc1OC(C)=O` [Example 8, 7β-[D-2-(6,7-Diacetoxychromone-3-carboxamido)-2-(4-hydroxyphenyl)acetamido]-3-[(5-methyl-1,3,4-thiadiazol-2-yl)thiomethyl]-3-cephem-4-carboxylic acid], the MIC was 0.8 µg/mL in the assay with Escherichia coli NIHJ; at most 0.1 µg/mL in assay [1]; 1.56 µg/mL in the assay on Proteus morganii EP-14; 1.56 µg/mL in assay [2]; at most 0.1 µg/mL in assay [3]; 3.13 µg/mL in assay [4].
In the case of `Cc1nnc(SCC2=C(C(=O)O)N3C(=O)[C@@H](NC(=O)[C@H](NC(=O)c4coc5cc(O)c(O)cc5c4=O)c4ccccc4)[C@H]3SC2)s1` [Example 2, 7β-[D-2-(6,7-Dihydroxychromone-3-carboxamido)-2-phenyl-acetamido]-3-[(5-methyl-1,3,4-thiadiazol-2-yl)thiomethyl]-3-cephem-4-carboxylic acid], the minimum inhibitory concentration (MIC) in the assay with Escherichia coli NIHJ was 0.8 µg/mL; in assay [1], at most 0.1 µg/mL; with Proteus morganii EP-14, 0.8 µg/mL; in assay [2], 3.13 µg/mL; in assay [3], at most 0.1 µg/mL; in assay [4], 1.56 µg/mL.
In the case of `Cn1nnnc1SCC1=C(C(=O)O)N2C(=O)[C@@H](NC(=O)[C@H](NC(=O)c3coc4ccccc4c3=O)c3ccc(O)cc3)[C@H]2SC1` [Example 15, 7β-[D-2-(Chromone-3-carboxamido)-2-(4-hydroxyphenyl)acetamido]-3-[(1-methyltetrazol-5-yl)thiomethyl]-3-cephem-4-carboxylic acid], the MIC in the assay on Escherichia coli NIHJ was found to be 6.25 µg/mL; in assay [1], 12.5 µg/mL; in the assay with Proteus morganii EP-14 it was 25 µg/mL; in assay [2], 100 µg/mL; in assay [3], 25 µg/mL; in assay [4], 0.4 µg/mL.
Take `Cc1nnc(SCC2=C(C(=O)O)N3C(=O)[C@@H](NC(=O)Cn4cnnn4)[C@H]3SC2)s1` [Sodium salt of Cefazolin, reference compound]: the MIC was 1.56 µg/mL in the assay on Escherichia coli NIHJ; 1.56 µg/mL in assay [1]; over 100 µg/mL with Proteus morganii EP-14; over 100 µg/mL in assay [2]; over 100 µg/mL in assay [3]; 0.4 µg/mL in assay [4].
Regarding `Cc1nnc(SCC2=C(C(=O)O)N3C(=O)[C@@H](NC(=O)[C@H](NC(=O)c4coc5cc(O)c(O)cc5c4=O)c4ccc(O)cc4)[C@H]3SC2)o1` [Example 27, 7β-[D-2-(6,7-Dihydroxychromone-3-carboxamido)-2-(4-hydroxyphenyl)acetoamido]-3-[(5-methyl-1,3,4-oxadiazol-2-yl)thiomethyl]-3-cephem-4-carboxylic acid], the MIC in the assay with Escherichia coli NIHJ is 0.4 µg/mL; in assay [1], at most 0.1 µg/mL; with Proteus morganii EP-14 it was 50 µg/mL; in assay [2] it was 1.56 µg/mL; in assay [3], 0.2 µg/mL; in assay [4], 0.8 µg/mL.
For `CC(=O)Oc1ccc2c(=O)c(C(=O)N[C@@H](C(=O)N[C@@H]3C(=O)N4C(C(=O)O)=C(CSc5nnc(C)s5)CS[C@H]34)c3ccc(O)cc3)coc2c1OC(C)=O` [Example 12, 7β[D-2-(7,8-Diacetoxychromone-3-carboxamido)-2-(4-hydroxyphenyl)acetamido]-3-[(5-methyl-1,3,4-thiadiazol-2-yl)thiomethyl]-3-cephem-4-carboxylic acid], the MIC is 1.56 µg/mL with Escherichia coli NIHJ; at most 0.1 µg/mL in assay [1]; 3.13 µg/mL in the assay with Proteus morganii EP-14; 1.56 µg/mL in assay [2]; 0.2 µg/mL in assay [3]; 1.56 µg/mL in assay [4].
As to `O=C(O)Cn1nnnc1SCC1=C(C(=O)O)N2C(=O)[C@@H](NC(=O)[C@H](NC(=O)c3coc4cc(O)c(O)cc4c3=O)c3ccc(O)cc3)[C@H]2SC1` [Example 23], the MIC with Escherichia coli NIHJ was 0.4 µg/mL; in assay [1], at most 0.1 µg/mL; in the assay on Proteus morganii EP-14 it was 12.5 µg/mL; in assay [2] it was 0.8 µg/mL; in assay [3] it was at most 0.1 µg/mL; in assay [4], 3.13 µg/mL.
For the compound `O=C(O)C1=C(CSc2cccc[n+]2[O-])CS[C@@H]2[C@H](NC(=O)[C@H](NC(=O)c3coc4cc(O)c(O)cc4c3=O)c3ccc(O)cc3)C(=O)N12` [Example 25, 7β-[D-2-(6,7-Dihydroxychromone-3-carboxamido)-2-(4-hydroxyphenyl)acetamido]-3-[2-(pyridyl-1-oxido)thiomethyl]-3-cephem-4-carboxylic acid], the MIC in the assay on Escherichia coli NIHJ is 0.8 µg/mL; in assay [1], at most 0.1 µg/mL; in the assay on Proteus morganii EP-14, 25 µg/mL; in assay [2] it was 0.8 µg/mL; in assay [3] it was 0.2 µg/mL; in assay [4], 1.56 µg/mL.
In the case of `O=C(O)C1=C(CSc2nnc[nH]2)CS[C@@H]2[C@H](NC(=O)[C@H](NC(=O)c3coc4cc(O)c(O)cc4c3=O)c3ccc(O)cc3)C(=O)N12` [Example 22], the MIC was 1.56 µg/mL with Escherichia coli NIHJ; at most 0.1 µg/mL in assay [1]; 50 µg/mL with Proteus morganii EP-14; 1.56 µg/mL in assay [2]; 0.4 µg/mL in assay [3]; 3.13 µg/mL in assay [4].
In the case of `CC(=O)Oc1ccc2c(=O)c(C(=O)N[C@@H](C(=O)N[C@@H]3C(=O)N4C(C(=O)O)=C(CSc5nnc(C)s5)CS[C@H]34)c3ccccc3)coc2c1OC(C)=O` [Example 10, 7β-[D-2-(7,8-Diacetoxychromone-3-carboxamido)-2-phenyl-acetamido]-3-[(5-methyl-1,3,4-thiadiazol-2-yl)thiomethyl]-3-cephem-4-carboxylic acid], the MIC with Escherichia coli NIHJ is 0.8 µg/mL; in assay [1], at most 0.1 µg/mL; in the assay on Proteus morganii EP-14, 1.56 µg/mL; in assay [2], 1.56 µg/mL; in assay [3], 0.2 µg/mL; in assay [4], 0.8 µg/mL.
